Several values for one entry are separate records, joined by “and”; a condition that tells them apart may be missing. Equal values may be shown once. Read-outs that look alike come from different tables or passages of the source. Where only a bound is given, the exact number is not on record here.

By EC50 is commonly meant the midpoint of the concentration-response curve.

What all share (assay type): cell-based
The test system of one data set is Aspergillus fumigatus. The experiment in a line: Anti-Aspergillus fumigatus in vitro growth inhibition (glucose consumption). Particulars: for IC50: Aspergillus fumigatus. The source says:
Différents composés B1 ont été testés du point de vue de leurs propriétés anti-Aspergillus fumigatus, dans un essai in vitro standardisé, complètement décrit dans la publication (7) dont le contenu est incorporé, par référence, à la présente description.
Dans cet essai, la croissance dudit champignon est indiquée par la consommation de glucose qui constitue la seule source de carbone métabolisable, et on mesure la concentration en composé testé nécessaire pour inhiber 50% (IC50), et 90% (IC90) de la croissance du champignon. Deux composés témoin sont utilisés, l'Itraconazole et l'Amphotéricine B, dont les propriétés anti-Aspergillus fumigatus sont connues et qui servent dans cet essai de référence.

For the next data set, the system named is CEM non infectées. The experiment in a line: Toxicity on uninfected CEM cells, colorimetric formazan (MTT) reduction. The note with it: lowest concentration inhibiting formazan formation by at least 50%, four days of incubation, macrophage CEM-SS. How it is done: On détermine aussi la toxicité des composés testés. L'effet toxique sur les CEM non infectées est apprécié par une réaction colorimétrique basée sur la capacité des cellules vivantes à réduire le bromure de 3-(4,5-diméthylthiazol-2-yl)-2,5-diphényltétrazolium en formazan après quatre jours d'incubation en présence de différentes concentrations des composés. Les résultats sont exprimés par la concentration la plus faible de composés qui provoque une inhibition d'au moins 50% de la formation de formazan. Cette concentration est appelée CI50.

The next data set relates to VIH (souche BRU). The experiment in a line: Anti-HIV in vitro test: syncytia formation in HIV-infected CEM cells. The note with it: 96 h. The source says:
Les composés A (A1, A2) et B (B1, B2) sont testés du point de vue de leurs propriétés anti-VIH selon un protocole d'essai in vitro standardisé et complètement décrit dans les publications (5, 6), dont le contenu est incorporé par référence, à la présente description.
La multiplication du VIH (souche BRU) dans les cellules CEM est évaluée par le nombre de syncytia formés après 4 jours d'infection, résultant de l'interaction entre la glycoprotéine gp120 exprimée par les cellules (BRU) infectées par le VIH, et les lymphocytes T4 (CEM).
Les composés testés sont ajoutés après l'adsorption du virus dans le milieu de culture aux concentrations finales 10^-3M, 10^-4M, 10^-5M, 10^-6M et 10^-7M.
Les résultats sont exprimés par la concentration la plus faible de composés qui diminue la formation des syncytia d'au moins 50%. Cette concentration est appelée EC50. Elle doit être la plus basse possible.

Setting [1] is: anti-VIH sur macrophage CEM-SS, lowest concentration reducing syncytia formation by at least 50%, 4 days of infection, read-out: EC50.

`CCCCCCCCCCCCCC(=O)N(CCCCCCCCC)C[C@H](O)[C@@H](O)[C@H](O[C@@H]1O[C@H](CO)[C@H](O)[C@H](O)[C@H]1O)[C@H](O)CO` [B1(9, 13)]: the IC50 with Aspergillus fumigatus (read-out: CI50) is 5 µg/mL and 7.4 µM.

Consider `CCC(C)n1ncn(-c2ccc(N3CCN(c4ccc(OCC5COC(Cn6cncn6)(c6ccc(Cl)cc6Cl)O5)cc4)CC3)cc2)c1=O` (centres unmarked) [Itraconazole, reference compound], for which the IC50 with Aspergillus fumigatus (concentration inhibiting 50% of fungal growth, read-out: CI50 (the source's name)) was 0.003 µg/mL and 4 nM.

`CCCCCCCCCCCCCCNC[C@H](O)[C@@H](O)[C@H](O[C@@H]1O[C@H](CO)[C@H](O)[C@H](O)[C@H]1O)[C@H](O)CO` [N-tétradécylaminodésoxy-l-lactitol]: in the data set with Aspergillus fumigatus (read-out: CI50), the IC50 is 15.2 µg/mL and 28.1 µM. The molecule further yielded a CI50 in the data set with CEM non infectées of 70 µM. The molecule also gave an EC50 with VIH (souche BRU) (CEM-SS) of 50 µM.

As for `CCCCCCCCCCCCCCCC(=O)N(CCCCCCCCC)C[C@H](O)[C@@H](O)[C@H](O[C@@H]1O[C@H](CO)[C@H](O)[C@H](O)[C@H]1O)[C@H](O)CO` [B1(9, 15)], the IC50 in the data set with Aspergillus fumigatus (read-out: CI50) is 1.6 µg/mL and 2.3 µM. Moreover, in the data set with CEM non infectées, the CI50 is on record as more than 100 µM. In the data set on VIH (souche BRU) (setting [1]), the EC50 was 10 µM.

As for `CCCCCCCCCCCCCCCCNC[C@H](O)[C@@H](O)[C@H](O[C@@H]1O[C@H](CO)[C@H](O)[C@H](O)[C@H]1O)[C@H](O)CO` [N-hexadécylaminodésoxy-l-lactitol], in the data set with Aspergillus fumigatus (read-out: CI50), the IC50 was 2.2 µg/mL and 3.8 µM. Also, the CI50 in the data set on CEM non infectées is on record as 70 µM. Also, the midpoint of the response in the data set with VIH (souche BRU) (CEM-SS), the EC50, lay at 50 µM.

With `C[C@@H]1[C@H](O)[C@@H](C)/C=C/C=C/C=C/C=C/C=C/C=C/C=C/[C@H](O[C@@H]2O[C@H](C)[C@@H](O)[C@H](N)[C@@H]2O)C[C@@H]2O[C@](O)(C[C@@H](O)C[C@@H](O)[C@H](O)CC[C@@H](O)C[C@@H](O)CC(=O)O[C@H]1C)C[C@H](O)[C@H]2C(=O)O` [Amphotéricine B, reference compound], the IC50 in the data set with Aspergillus fumigatus (read-out: CI50) was 0.02 µg/mL and 20 nM.

Take `CCCCCCCCCCCCNC[C@H](O)[C@@H](O)[C@H](O[C@@H]1O[C@H](CO)[C@H](O)[C@H](O)[C@H]1O)[C@H](O)CO` [N-dodécylaminodésoxyl-1-lactitol]: in the data set with Aspergillus fumigatus (read-out: CI50), the IC50 is > 100 µg/mL and 195 µM. Further, the CI50 with CEM non infectées is 7000 µM. Moreover, in the data set with VIH (souche BRU) (CEM-SS), the EC50 worked out at 1000 µM.

In the case of `CCCCCCCCCNC[C@H](O)[C@@H](O)[C@H](O[C@@H]1O[C@H](CO)[C@H](O)[C@H](O)[C@H]1O)[C@H](O)CO` [N-nonylaminodésoxy-1-lactitol], the IC50 with Aspergillus fumigatus (read-out: CI50) is > 100 µg/mL and > 220 µM. Besides, the CI50 in the data set with CEM non infectées is 40 µM. Further, the half-maximal effective concentration (EC50) in the data set on VIH (souche BRU) (setting [1]) stood at 1 µM.

For `CCCCCCCCCCCCCCCCCC(=O)N(CCCCCCCCC)C[C@H](O)[C@@H](O)[C@H](O[C@@H]1O[C@H](CO)[C@H](O)[C@H](O)[C@H]1O)[C@H](O)CO` [B1(9, 17)], in the data set with Aspergillus fumigatus (read-out: CI50), the IC50 is 0.5 µg/mL and 600 nM. Moreover, in the data set with Aspergillus fumigatus (result in words, compared with the reference compound), the “activité anti-Aspergillus fumigatus” value is on record as “proche de celle de l'Amphotéricine B”.
